Laboratory results: BindingDB's records for doi:10.7270/Q2N301S8 (D3R/Abbott, 2020)

Molecular target: Beta-secretase 1 (Homo sapiens, UniProt P56817)
Test: D3R2027
Description: D3R2027

Beta-secretase 1, sequence (P56817 whole entry): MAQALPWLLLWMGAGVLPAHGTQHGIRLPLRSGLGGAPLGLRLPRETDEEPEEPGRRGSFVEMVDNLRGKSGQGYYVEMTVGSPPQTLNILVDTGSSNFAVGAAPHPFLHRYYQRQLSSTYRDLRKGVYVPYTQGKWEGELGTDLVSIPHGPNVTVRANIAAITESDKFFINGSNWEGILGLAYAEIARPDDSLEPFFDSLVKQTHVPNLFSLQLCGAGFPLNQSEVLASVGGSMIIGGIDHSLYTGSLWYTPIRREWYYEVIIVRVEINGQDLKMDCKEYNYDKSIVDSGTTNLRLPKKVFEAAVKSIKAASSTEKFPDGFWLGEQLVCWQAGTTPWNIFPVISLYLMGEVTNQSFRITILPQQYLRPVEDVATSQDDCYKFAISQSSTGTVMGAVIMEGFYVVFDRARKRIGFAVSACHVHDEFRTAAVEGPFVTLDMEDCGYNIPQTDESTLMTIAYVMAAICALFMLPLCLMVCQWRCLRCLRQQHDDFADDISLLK

IC50 [nM] | SMILES
1500 | COCc1cc2cc(c1)C(=O)N[C@H]([C@H](O)CNCc1cc(OC)cc(OC)c1)C[C@H](C)CCCCCCCN2 [BACE_61]
880 | C[C@@H]1CCCCCCCOc2cccc(c2)C(=O)N[C@H]([C@H](O)CNCc2cncc(CC(C)(C)C)c2)C1 [BACE_78]
540 | CC(C)c1cccc(C(C)(C)NC[C@@H](O)[C@@H]2C[C@H](C)CCCCCCCNc3cccc(c3)C(=O)N2)c1 [BACE_55]
16 | CCCCNC(=O)[C@H](C)C[C@H](O)[C@@H]1C[C@H](C)CCCCCN(CC)C(=O)c2cc(OCC)cc(c2)C(=O)N1 [BACE_1]
31 | CC(C)c1cccc(CNC[C@@H](O)[C@@H]2C[C@H](C)CCOCCCCNc3cc(cc(Cl)n3)C(=O)N2)c1 [BACE_8]
570 | COCc1cc2cc(c1)C(=O)N[C@H]([C@H](O)CNCc1cccc(C(C)C)c1)C[C@H](C)CCOCCCCN2 [BACE_10]
31 | C[C@@H]1CCCCCCCOc2cc(ccn2)C(=O)N[C@H]([C@H](O)CNC(C)(C)c2cc(CC(C)(C)C)on2)C1 [BACE_84]
1000 | CC(C)c1cccc(CNC[C@@H](O)[C@@H]2C[C@H](C)CCCCCOCC(=O)N(C)[C@@H](C)C(=O)N2)c1 [BACE_34]
740 | CC(C)c1cccc(CNC[C@@H](O)[C@@H]2C[C@H](C)CCCCCCCN(C)c3cc(ccn3)C(=O)N2)c1 [BACE_42]
460 | CCCCNC(=O)[C@H](C)C[C@H](O)[C@@H]1C[C@H](C)CCCCCCNc2cc(cc(OC)n2)C(=O)N1 [BACE_152]
29 | Cc1cc2cc(n1)NCCCCCCC[C@@H](C)C[C@@H]([C@H](O)CNCc1cccc(C(C)C)c1)NC2=O [BACE_41]
350 | CC(C)c1cccc(CNC[C@@H](O)[C@@H]2C[C@H](C)CC/C=C/CCCNc3cc(CO)cc(c3)C(=O)N2)c1 [BACE_66]
400 | CCCc1cc(CNC[C@@H](O)[C@@H]2C[C@H](C)CCCCCCOCC(=O)N(C)[C@@H](C)C(=O)N2)n[nH]1 [BACE_5]
210 | C[C@@H]1CC/C=C/CCCNc2cc(CO)cc(c2)C(=O)N[C@H]([C@H](O)CNCc2cc(CC(C)(C)C)on2)C1 [BACE_67]
8900 | CCOc1ccc(C(F)(F)F)c(CNC[C@@H](O)[C@@H]2C[C@H](C)CCOCCCCNc3cccc(c3)C(=O)N2)c1 [BACE_72]
83 | Cc1cc2cc(n1)NCCCCOCC[C@@H](C)C[C@@H]([C@H](O)CNC(C)(C)c1cc(CC(C)(C)C)on1)NC2=O [BACE_48]
510 | C[C@@H]1CCCCCCOCC(=O)N(C)[C@@H](C)C(=O)N[C@H]([C@H](O)CNCc2cncc(Br)c2)C1 [BACE_35]
55 | C[C@@H]1CCCCCCCCC(=O)N(C)[C@@H](C)C(=O)N[C@H]([C@H](O)CN[C@@H](C)c2cccc(Br)c2)C1 [BACE_22]
41 | CCCCNC(=O)[C@H](C)C[C@H](O)[C@@H]1C[C@H](C)CCCCC[C@H](C)CCC(=O)N(C)[C@@H](C)C(=O)N1 [BACE_148]
4000 | CCCCNC(=O)[C@H](C)C[C@H](O)[C@@H]1Cc2ccc(O)c(c2)Cc2ccccc2OCCCCC(=O)N1 [BACE_158]
7.8 | COc1cc2cc(n1)NCCCCc1cccc(c1)C[C@@H]([C@H](O)CNCc1cccc(C(C)C)c1)NC2=O [BACE_12]
270 | CC(C)Cc1cncc(C(C)(C)NC[C@@H](O)[C@@H]2C[C@H](C)CCCCCCCCC(=O)N(C)[C@@H](C)C(=O)N2)c1 [BACE_26]
0.5 | CCCCNC(=O)[C@H](C)C[C@H](O)[C@@H]1C[C@H](C)CCCCCCC[C@H](NC(=O)c2ccncc2)C(=O)N[C@@H](C)C(=O)N1 [BACE_150]
240 | C[C@@H]1CCCCCCCCC(=O)N(C)[C@@H](C)C(=O)N[C@H]([C@H](O)CNC(C)(C)c2nnc(CC(C)(C)C)s2)C1 [BACE_31]

The next lines start with the compound.

SMILES | IC50 [nM]
CCCNc1cc(COC)cc(C(=O)N[C@@H](Cc2cccc(OC)c2)[C@H](O)CNCc2cccc(C(C)C)c2)c1 [BACE_146] | 3100
C[C@@H]1CCCCCCCCS(=O)(=O)C[C@@H](C)C(=O)N[C@H]([C@H](O)CNC2(c3cccc(C(C)(C)C)c3)CC2)C1 [BACE_38] | 24
COCc1cc2cc(c1)C(=O)N[C@H]([C@H](O)CNC(C)(C)c1cc(CC(C)(C)C)on1)Cc1cccc(c1)OCCCCN2 [BACE_117] | 6.5
CC(C)c1cccc(C(C)(C)NC[C@@H](O)[C@@H]2Cc3cccc(c3)CCCCNc3cccc(c3)C(=O)N2)c1 [BACE_115] | 290
CC(C)c1cccc(CNC[C@@H](O)[C@@H]2C[C@H](C)CCCCCCCCC(=O)N3CCCC[C@H]3C(=O)N2)c1 [BACE_85] | 1500
COCc1cc2cc(c1)C(=O)N[C@H]([C@H](O)CN[C@H]1CC(C)(C)Oc3ccc(C(C)C)cc31)Cc1cccc(c1)OCCCCN2 [BACE_128] | 2.5
CC(=O)N1CCCCOc2cccc(c2)C[C@@H]([C@H](O)CNCc2cc(C(C)C)ccn2)NC(=O)c2cc(C)nc1c2 [BACE_101] | 5500
CC(C)Cc1cncc(C(C)(C)NC[C@@H](O)[C@@H]2Cc3cccc(c3)OCCCCNc3cccc(c3)C(=O)N2)c1 [BACE_123] | 260
CC(=O)COc1cc2cc(c1)C(=O)N[C@H]([C@H](O)CNC1(c3cc(C(C)(C)C)ccn3)CC1)Cc1cccc(c1)CCCCO2 [BACE_133] | 2
CCCNc1cc(COC)cc(C(=O)N[C@@H](Cc2cccc(OC)c2)[C@H](O)CNC2(c3cccc(C(C)C)c3)CC2)c1 [BACE_145] | 1200
CC(C)c1ccnc(CNC[C@@H](O)[C@@H]2Cc3cccc(c3)CCCCOc3cc(cc(N4CCCC4=O)c3)C(=O)N2)c1 [BACE_136] | 27
CCc1cc(CNC[C@@H](O)[C@@H]2Cc3cccc(c3)OCCCCOc3cc(cc(C(=O)N(C)C)c3)C(=O)N2)ncn1 [BACE_141] | 1700
Cc1cc2cc(n1)NCCCCc1cccc(c1)C[C@@H]([C@H](O)CNCc1cc(C(C)(C)C)ccn1)NC2=O [BACE_97] | 3
CC(=O)COc1cc2cc(c1)C(=O)N[C@H]([C@H](O)CNCc1cc(C(C)(C)C)ccn1)Cc1cccc(c1)CCCCO2 [BACE_135] | 10
NC[C@@H](O)[C@@H]1Cc2cccc(c2)OC/C=C\CNc2cc(cc(Cl)n2)C(=O)N1 [BACE_104] | 40000
CC(C)c1cccc(CNC[C@@H](O)[C@@H]2C[C@@H]3CC[C@H](CCCCCNc4cc(cc(C(F)(F)F)c4)C(=O)N2)C3)c1 [BACE_71] | 340
CC(C)(C)Cc1cc(C(C)(C)NC[C@@H](O)[C@@H]2Cc3cccc(c3)OCCCCOc3cc(Cl)cc(c3)C(=O)N2)no1 [BACE_96] | 8
COCc1cc2cc(c1)C(=O)N[C@H]([C@H](O)CNCc1cnn(CC(C)C)c1)Cc1cccc(c1)OCCCCN2 [BACE_127] | 100
Cc1cc2cc(n1)OCc1ccccc1COc1cccc(c1)C[C@@H]([C@H](O)CNC1(c3cccc(C(C)C)c3)CC1)NC2=O [BACE_112] | 1400
COC(=O)c1cc2cc(c1)C(=O)N[C@H]([C@H](O)CNCc1cccc(C(C)C)c1)Cc1cccc(c1)CCCCO2 [BACE_134] | 180
CC(=O)COc1cc2cc(c1)C(=O)N[C@H]([C@H](O)CNCc1cccc(C(C)C)c1)Cc1cccc(c1)OCCCCO2 [BACE_16] | 34
C[C@H](NC[C@@H](O)[C@@H]1Cc2cccc(c2)OCCCCOc2cncc(c2)C(=O)N1)c1cc(CC(C)(C)C)on1 [BACE_125] | 6
COCc1cc2cc(c1)C(=O)N[C@H]([C@H](O)CNC1(c3cccc(C(C)C)c3)CC1)Cc1cccc(c1)OCCCO2 [BACE_140] | 78
